Target: T1, mouse TRPM3a2 (mTRPM3) ion channel (Mus musculus, UniProt J9SQF3)
T1 construct: expressed in transfected cells; host or cells: flip-in HEK293
Experiment: TRPM3 ion channel driven Ca2+ uptake, Fluo-4 AM assay (PS-stimulated, overexpressing flip-in HEK293 cells)
Assay type: cell-based
Details: PS (50 μM) stimulated, cpds. 600-666
In short: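 Flip-in HEK293 cells overexpressing mTRPM3α2, loaded with Fluo-4 AM, were added to wells with compound plus 50 μM pregnenolone sulfate in Ca2+-containing Krebs buffer and read immediately (ex 485/em 535 nm). Percent inhibition was scaled between PS-plus-vehicle and positive-control-inhibitor signals.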

T1 sequence (J9SQF3 1-1709 isoform J9SQF3-12): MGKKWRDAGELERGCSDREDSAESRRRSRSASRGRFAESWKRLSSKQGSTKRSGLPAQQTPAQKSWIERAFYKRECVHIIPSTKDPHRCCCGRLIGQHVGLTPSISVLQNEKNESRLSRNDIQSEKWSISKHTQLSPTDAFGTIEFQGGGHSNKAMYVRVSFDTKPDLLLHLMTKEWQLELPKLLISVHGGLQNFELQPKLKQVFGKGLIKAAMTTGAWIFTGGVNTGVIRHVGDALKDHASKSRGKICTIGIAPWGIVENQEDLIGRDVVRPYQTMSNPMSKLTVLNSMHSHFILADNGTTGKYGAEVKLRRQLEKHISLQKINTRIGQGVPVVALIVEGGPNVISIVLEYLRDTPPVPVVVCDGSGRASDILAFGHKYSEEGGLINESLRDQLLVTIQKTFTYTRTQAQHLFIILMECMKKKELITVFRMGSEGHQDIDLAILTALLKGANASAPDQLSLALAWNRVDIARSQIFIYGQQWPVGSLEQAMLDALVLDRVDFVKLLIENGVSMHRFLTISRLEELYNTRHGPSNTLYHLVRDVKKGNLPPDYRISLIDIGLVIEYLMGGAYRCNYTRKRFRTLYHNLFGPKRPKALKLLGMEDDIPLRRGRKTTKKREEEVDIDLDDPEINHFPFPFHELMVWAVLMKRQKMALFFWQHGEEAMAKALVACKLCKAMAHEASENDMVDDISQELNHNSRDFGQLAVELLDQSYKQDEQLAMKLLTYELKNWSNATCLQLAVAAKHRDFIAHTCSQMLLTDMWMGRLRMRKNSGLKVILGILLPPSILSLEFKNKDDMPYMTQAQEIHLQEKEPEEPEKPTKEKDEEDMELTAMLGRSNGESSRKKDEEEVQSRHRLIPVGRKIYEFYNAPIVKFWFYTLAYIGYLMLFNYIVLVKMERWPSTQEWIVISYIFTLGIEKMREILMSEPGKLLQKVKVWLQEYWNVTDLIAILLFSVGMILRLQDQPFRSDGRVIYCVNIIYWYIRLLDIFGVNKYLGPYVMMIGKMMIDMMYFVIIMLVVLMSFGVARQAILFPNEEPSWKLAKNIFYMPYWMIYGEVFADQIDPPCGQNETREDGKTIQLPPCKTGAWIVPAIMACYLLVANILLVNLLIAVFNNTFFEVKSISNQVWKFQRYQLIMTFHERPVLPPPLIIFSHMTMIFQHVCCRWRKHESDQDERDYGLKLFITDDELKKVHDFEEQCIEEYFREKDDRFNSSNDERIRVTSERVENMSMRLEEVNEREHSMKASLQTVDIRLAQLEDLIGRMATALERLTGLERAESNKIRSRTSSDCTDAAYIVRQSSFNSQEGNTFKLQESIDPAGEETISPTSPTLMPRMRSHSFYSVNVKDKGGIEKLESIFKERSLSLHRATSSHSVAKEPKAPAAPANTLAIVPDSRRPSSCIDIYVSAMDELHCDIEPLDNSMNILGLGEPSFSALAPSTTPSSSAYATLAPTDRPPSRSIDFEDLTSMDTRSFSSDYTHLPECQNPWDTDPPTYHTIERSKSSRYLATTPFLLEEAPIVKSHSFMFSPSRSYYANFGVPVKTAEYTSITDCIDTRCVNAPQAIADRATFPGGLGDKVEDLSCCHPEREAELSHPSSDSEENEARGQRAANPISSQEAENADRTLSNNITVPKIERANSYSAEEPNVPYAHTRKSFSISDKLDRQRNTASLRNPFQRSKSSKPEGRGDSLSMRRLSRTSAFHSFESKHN

Row | IC50 [µM] | Structure (SMILES)
1 | 1 to 20 | Cc1ncsc1COc1ccc2oc(C)c(C(=O)NC3(CO)CCOCC3)c2c1C [cpd 603, N-(4-(hydroxymethyl)tetrahydro-2H-pyran-4-yl)-2,4-dimethyl-5-((4-methylthiazol-5-yl)methoxy)benzofuran-3-carboxamide]
2 | 1 to 20 | Cc1oc2ccc(OCc3ncn(C)n3)cc2c1C(=O)NC1(CO)CCOCC1 [cpd 606, N-(4-(hydroxymethyl)tetrahydro-2H-pyran-4-yl)-2-methyl-5-((1-methyl-1H-1,2,4-triazol-3-yl)methoxy)benzofuran-3-carboxamide]
3 | 1 to 20 | Cc1oc2ccc(OCc3cncn3C)cc2c1C(=O)NC1(CO)CCOCC1 [cpd 607, N-(4-(hydroxymethyl)tetrahydro-2H-pyran-4-yl)-2-methyl-5-((1-methyl-1H-imidazol-5-yl)methoxy)benzofuran-3-carboxamide]
4 | 1 to 20 | Cc1oc2ccc(OCc3cccn(C)c3=O)cc2c1C(=O)NC1(CO)CCOCC1 [cpd 609, N-(4-(hydroxymethyl)tetrahydro-2H-pyran-4-yl)-2-methyl-5-((1-methyl-2-oxo-1,2-dihydropyridin-3-yl)methoxy)benzofuran-3-carboxamide]
5 | 1 to 20 | Cc1oc2ccc(OCc3cccc(=O)n3C)cc2c1C(=O)NC1(CO)CCOCC1 [cpd 610, N-(4-(hydroxymethyl)tetrahydro-2H-pyran-4-yl)-2-methyl-5-((1-methyl-6-oxo-1,6-dihydropyridin-2-yl)methoxy)benzofuran-3-carboxamide]
6 | 1 to 20 | Cc1nccc(COc2ccc3oc(C)c(C(=O)NC4(CO)CCOCC4)c3c2)n1 [cpd 612, N-(4-(hydroxymethyl)tetrahydro-2H-pyran-4-yl)-2-methyl-5-((2-methylpyrimidin-4-yl)methoxy)benzofuran-3-carboxamide]
7 | 1 to 20 | Cc1coc(COc2ccc3oc(C)c(C(=O)NC4(CO)CCOCC4)c3c2)n1 [cpd 616, N-(4-(hydroxymethyl)tetrahydro-2H-pyran-4-yl)-2-methyl-5-((4-methyloxazol-2-yl)methoxy)benzofuran-3-carboxamide]
8 | 1 to 20 | Cc1csc(COc2ccc3oc(C)c(C(=O)NC4(CO)CCOCC4)c3c2)n1 [cpd 617, N-(4-(hydroxymethyl)tetrahydro-2H-pyran-4-yl)-2-methyl-5-((4-methylthiazol-2-yl)methoxy)benzofuran-3-carboxamide]
9 | 1 to 20 | Cc1cnc(COc2ccc3oc(C)c(C(=O)NC4(CO)CCOCC4)c3c2)cn1 [cpd 619, N-(4-(hydroxymethyl)tetrahydro-2H-pyran-4-yl)-2-methyl-5-((5-methylpyrazin-2-yl)methoxy)benzofuran-3-carboxamide]
10 | 1 to 20 | Cc1ccc(COc2ccc3oc(C)c(C(=O)NC4(CO)CCOCC4)c3c2)cn1 [cpd 622, N-(4-(hydroxymethyl)tetrahydro-2H-pyran-4-yl)-2-methyl-5-((6-methylpyridin-3-yl)methoxy)benzofuran-3-carboxamide]
11 | 1 to 20 | Cc1oc2ccc(OCc3ncccn3)cc2c1C(=O)NC1(CO)CCOCC1 [cpd 626, N-(4-(hydroxymethyl)tetrahydro-2H-pyran-4-yl)-2-methyl-5-(pyrimidin-2-ylmethoxy)benzofuran-3-carboxamide]
12 | 1 to 20 | Cc1oc2ccc(OCc3ccnc(O)c3)cc2c1C(=O)NC1(CO)CCOCC1 [cpd 628, N-(4-(hydroxymethyl)tetrahydro-2H-pyran-4-yl)-5-((2-hydroxypyridin-4-yl)methoxy)-2-methylbenzofuran-3-carboxamide]
13 | 1 to 20 | COc1ccc(COc2ccc3oc(C)c(C(=O)NC4(CO)CCOCC4)c3c2)cn1 [cpd 632, N-(4-(hydroxymethyl)tetrahydro-2H-pyran-4-yl)-5-((6-methoxypyridin-3-yl)methoxy)-2-methylbenzofuran-3-carboxamide]
14 | 1 to 20 | Cc1oc2ccc(OCc3ccc4nccn4c3)cc2c1C(=O)NC1(CO)CCOCC1 [cpd 633, N-(4-(hydroxymethyl)tetrahydro-2H-pyran-4-yl)-5-(imidazo[1,2-a]pyridin-6-ylmethoxy)-2-methylbenzofuran-3-carboxamide]
